Reference: US20090186896A1, “PDE Inhibitors and Combinations Thereof for the Treatment of Urological Disorders” (Bayer HealthCare AG, priority 2005, published 2009)
Where two headings read alike, the source gives them in different places.

How the values were obtained:
rabbit bladder strips = assay: Organ bath, isolated rabbit bladder strips pre-contracted with K+ (50 mmol/l); assay type: cell-based; conditions: for % contraction of isolated rabbit bladder strips: percentage of the pre-contraction, mean ± SEM, n = 9; for IC50: Oryctolagus cuniculus, rabbit bladder strips
Description: White New Zealand rabbits were anesthetized using thiopental. The urinary bladder was removed and placed in ice-cold Krebs-Henseleit buffer of following composition (in mmol/l): NaCl 112, KCl 5.9, CaCl2 2.0 MgCl2 1.2, NaH2PO4 1.2, NaHCO3 25, and glucose 11.5. Equally sized longitudinal strips of approximately 2 mm×10 mm were cut from the bladder body.
Recording of mechanical activity: The preparations were transferred to 20 ml organ baths containing Krebs-Henseleit solution equilibrated with 95% O2, 5% CO2 at 37° C. The strips were mounted between two hooks by means of two clips. For recording of isometric tension one of the hooks was connected to a force transducer which was in turn linked to an amplifier and chart recorder. The other hook was attached to a movable unit, permitting precise adjustment of preload tension. All tissues were then given a 60 min equilibration period during which they were washed and the resting tension was adjusted to 1 g every 20 min.
After the equilibration period, each experiment was started by exposing the preparation to K^+ (50 mmol/l) Krebs-Henseleit solution. The procedure was repeated 3 times and the tissues were washed at least tree times between each contraction.
The bladder strips were than pre-contracted using K^+ (50 mmol/l) Krebs-Henseleit solution. When the contraction was stabilized, an accumulative dose response curve of the compound tested was constructed. The stabilized contraction induced by K^+ (50 mmol/l) Krebs-Henseleit solution was defined as 100% tension. The relaxation was expressed as percentage tension.
Effects of PDE5 and PDE4 inhibitors on isolated rabbit bladder strips: The effects of the PDE5 inhibitor vardenafil and the PDE4 inhibitor Roflumilast on the relaxation the bladder smooth muscle was tested in the organ bath using rabbit bladder strips. Both compounds were tested in the concentration from 10^−9 mol/l to 10^−5 mol/l (FIG. 4, Tab. 2). […] (Table 2)

[1] = system: bladder of female Guinea Pigs; conditions: Gillespie 2004; cited from earlier work
human prostate tissue = conditions: in vitro; Ückert 2001; cited from earlier work
rat prostate strips = assay: Organ bath, isolated rat prostate strips pre-contracted with phenylephrine; assay type: cell-based; conditions: for Prostate (% contraction): percentage of the pre-contraction, mean ± SEM, n = 9
Excerpt: (§1) Tissue preparation: Male Wistar rats (200-300 g) were euthanized using carbon dioxide. The tissues were removed and placed in ice-cold Krebs-Henseleit buffer of following composition (in mmol/l): NaCl 112, KCl 5.9, CaCl2 2.0 MgCl2 1.2, NaH2PO4 1.2, NaHCO3 25, glucose 11.5. Four equally sized longitudinal strips of approximately 2 mm×10 mm were cut from the bladder body. Prostate strips were obtained by cutting transversally through the lobes of the prostate gland parallel to the urethra. One ring per animal was dissected from the proximal part of the urethra. Recording of mechanical activity: The preparations were transferred to 20 ml organ baths containing Krebs-Henseleit solution equilibrated with 95% O2, 5% CO2 at 37° C. The strips were mounted between two hooks by means of two clips. For recording of isometric tension one of the hooks was connected to a force transducer which was in turn linked to an amplifier and chart recorder. The other hook was attached to a movable unit, permitting precise adjustment of preload tension. All tissues were then given a 60 min equilibration period during which they were washed and the resting tension was adjusted to 1 g every 20 min. After the equilibration period, each experiment was started by exposing the preparation to K^+ (50 mmol/l) Krebs-Henseleit solution. The procedure was repeated 3 times and the tissues were washed at least tree times between each contraction. Prostatic strips and urethral rings were pre-contracted using 10^−6 mol/l phenylephrine. The effects of the compounds on the prostate tissue were tested in a non-cumulative manner with washing steps between each concentration. Organ bath assay: effects of Vardenafil on isolated rat urogenital organs: The effects of the PDE5 inhibitor Vardenafil on the relaxation of smooth muscles were tested in the organ bath system. The compound was applied in the concentration range from 10^−8 mol/l to 10^−5 mol/l (FIG. 3, Table 1).

rat urethral rings = assay: Organ bath, isolated rat urethral rings pre-contracted with phenylephrine; assay type: cell-based; conditions: for Urethra (% contraction): percentage of the pre-contraction, mean ± SEM, n = 9
Excerpt: as §1

rat bladder strips = assay: Organ bath, isolated rat bladder strips pre-contracted with K+ (50 mmol/l); assay type: cell-based; conditions: for Bladder (% contraction): percentage of the pre-contraction, mean ± SEM, n = 9
Excerpt: Tissue preparation: Male Wistar rats (200-300 g) were euthanized using carbon dioxide. The tissues were removed and placed in ice-cold Krebs-Henseleit buffer of following composition (in mmol/l): NaCl 112, KCl 5.9, CaCl2 2.0 MgCl2 1.2, NaH2PO4 1.2, NaHCO3 25, glucose 11.5. Four equally sized longitudinal strips of approximately 2 mm×10 mm were cut from the bladder body. Prostate strips were obtained by cutting transversally through the lobes of the prostate gland parallel to the urethra. One ring per animal was dissected from the proximal part of the urethra. Recording of mechanical activity: The preparations were transferred to 20 ml organ baths containing Krebs-Henseleit solution equilibrated with 95% O2, 5% CO2 at 37° C. The strips were mounted between two hooks by means of two clips. For recording of isometric tension one of the hooks was connected to a force transducer which was in turn linked to an amplifier and chart recorder. The other hook was attached to a movable unit, permitting precise adjustment of preload tension. All tissues were then given a 60 min equilibration period during which they were washed and the resting tension was adjusted to 1 g every 20 min. After the equilibration period, each experiment was started by exposing the preparation to K^+ (50 mmol/l) Krebs-Henseleit solution. The procedure was repeated 3 times and the tissues were washed at least tree times between each contraction. The bladder strips were than pre-contracted using K^+ (50 mmol/l) Krebs-Henseleit solution. When the contraction was stabilized, an accumulative dose response curve of the compound tested was constructed. The stabilized contraction induced by K^+ (50 mmol/l) Krebs-Henseleit solution was defined as 100% tension. The relaxation was expressed as percentage tension. Organ bath assay: effects of Vardenafil on isolated rat urogenital organs: The effects of the PDE5 inhibitor Vardenafil on the relaxation of smooth muscles were tested in the organ bath system. The compound was applied in the concentration range from 10^−8 mol/l to 10^−5 mol/l (FIG. 3, Table 1).

CYP-treated rats = assay: Anaesthetized cystometry, micturition interval in CYP-treated rats (overactive bladder); assay type: in vivo, rat; conditions: i.v.
Description: All animal experiments were performed due to the “German Law for the Protection of Laboratory animals” and were conducted due to the approved guidelines of the permission “Tierversuchsvorhaben No 401/A01 M010/M011 vom Sep. 7, 2004”. Experiments were performed with female Sprague Dawley Rats with a body weight between 200-250 g. Anaesthetized cystometry: For cystometry female SD rats were anaesthetized with urethane (1.2 g/kg, ip). After laparotomy, the bladder was exposed and both ureters were ligated and cut. A polyethylene cannula (PE50) was implanted into the bladder dome, and the abdomen was closed. The bladder catheter was connected to the t-shaped tube to connect a infusion pump (Perfusor® compact; Braun Melsungen) for continuous infusion of saline solution and to connect a pressure transducer (Combitrans; Braun Melsungen) for measurement of intrabladder pressure. The intrabladder pressure signals were registered with the Powerlab System (MLT0698, ADInstrument). […] The effect of treatments was calculated on the micturition interval (corresponding to bladder capacity). […]
Statistical analysis of results: Data are expressed as means i standard error of the means (SEM), and n indicating the number of experiments. The significance of differences between means was determined by paired and unpaired Student's t-test. […]

BOO rats = assay: Conscious cystometry in rat bladder outlet obstruction (BOO) model, non voiding contractions; assay type: in vivo; conditions: i.v.
Description: All animal experiments were performed due to the “German Law for the Protection of Laboratory animals” and were conducted due to the approved guidelines of the permission “Tierversuchsvorhaben No 401/A01 M010/M011 vom Sep. 7, 2004”. Experiments were performed with female Sprague Dawley Rats with a body weight between 200-250 g.
Bladder Outlet Obstruction: For the bladder outlet obstruction, rats were anesthetized with a mixture of 1.5-2% isoflurane in a carrier of 66% N2O 33% O2. The abdomen was shaved, opened by a lower midline incision, bladder and urethra were identified and the urethravesical junction was exposed. A 1.0 mm metal rod was placed along the proximal urethra and a 6-0 nylon ligature was tied tightly around the urethra and the rod. The rod was consecutively removed and the abdomen was closed by a silk ligature and cleaned up by 70% ethanol. […]
Conscious cystometry: For cystometry the animals were shortly anaesthetized by isoflurane as described above, placed in a Ballman's cage and fixed. […] The efficacy of treatment was quantified via calculation of the non voiding contractions per micturition interval before and after treatment. […]
Statistical analysis of results: Data are expressed as means±standard error of the means (SEM), and n indicating the number of experiments. The significance of differences between means was determined by paired and unpaired Student's t-test. […]

[2] = read-out: IC50, relaxation of bladder strips

## O=C(Nc1c(Cl)cncc1Cl)c1ccc(OC(F)F)c(OCC2CC2)c1 [Roflumilast]
Rabbit bladder strips; 0.001 μmol/l
  % contraction of isolated rabbit bladder strips: 100.8 ± 0.6%
Rabbit bladder strips; 0.01 μmol/l
  % contraction of isolated rabbit bladder strips: 90.1 ± 1.7%
Rabbit bladder strips; 0.1 μmol/l
  % contraction of isolated rabbit bladder strips: 75.1 ± 2.1%
Rabbit bladder strips; 1 μmol/l
  % contraction of isolated rabbit bladder strips: 55.8 ± 2.5%
Rabbit bladder strips; 10 μmol/l
  % contraction of isolated rabbit bladder strips: 40.9 ± 3.3%
Rabbit bladder strips; [2]
  IC50: 260 nM
Rabbit bladder strips; read-out: IC50, relaxing effects on rabbit bladder strips
  IC50: 260 nM

## CC(C)Cn1c(=O)n(C)c(=O)c2[nH]cnc21 [IBMX]
[1]
  relaxation of bladder: could relax

## CCCOc1ccccc1-c1nc2nn[nH]c2c(=O)[nH]1 [Zaprinast]
Human prostate tissue
  relaxation of pre-contracted human prostate tissue: able to relax
[1]
  relaxation of bladder: ineffective

## CCCc1nc(C)c2c(=O)[nH]c(-c3cc(S(=O)(=O)N4CCN(CC)CC4)ccc3OCC)nn12 [Vardenafil, 2-(2-Ethoxy-5-(4-ethylpiperazin-1-yl-1-sulfonyl)phenyl)-5-methyl-7-propyl-3H-imidazo (5,1-f) (1,2,4)triazin-4-one]
Rat prostate strips; 0.1 μmol/l
  Prostate (% contraction): 99.2 ± 3.0%
Rat prostate strips; 1 μmol/l
  Prostate (% contraction): 76.0 ± 2.3%
Rat prostate strips; 10 μmol/l
  Prostate (% contraction): 25.3 ± 3.2%
Rat prostate strips; rat prostate strips, read-out: EC50, relaxation of prostate strips
  EC50: 1100 nM
Rabbit bladder strips; 0.001 μmol/l
  % contraction of isolated rabbit bladder strips: 100.9 ± 1.0%
Rabbit bladder strips; 0.01 μmol/l
  % contraction of isolated rabbit bladder strips: 99.9 ± 0.9%
Rabbit bladder strips; 0.1 μmol/l
  % contraction of isolated rabbit bladder strips: 95.7 ± 1.7%
Rabbit bladder strips; 1 μmol/l
  % contraction of isolated rabbit bladder strips: 76.3 ± 3.7%
Rabbit bladder strips; 10 μmol/l
  % contraction of isolated rabbit bladder strips: 9.6 ± 12.6%
Rabbit bladder strips; [2]
  IC50: 1700 nM
Rat urethral rings; 0.001 μmol/l
  Urethra (% contraction): 88.4 ± 2.4%
Rat urethral rings; 0.01 μmol/l
  Urethra (% contraction): 88.5 ± 2.1%
Rat urethral rings; 0.1 μmol/l
  Urethra (% contraction): 77.1 ± 3.9%
Rat urethral rings; 1 μmol/l
  Urethra (% contraction): 44.9 ± 1.5%
Rat urethral rings; 10 μmol/l
  Urethra (% contraction): 3.5 ± 1.7%
Rat urethral rings; rat urethral rings, read-out: EC50, relaxation of urethral rings
  EC50: 960 nM
Rat bladder strips; 0.001 μmol/l
  Bladder (% contraction): 94.3 ± 0.9%
Rat bladder strips; 0.01 μmol/l
  Bladder (% contraction): 91.2 ± 1.3%
Rat bladder strips; 0.1 μmol/l
  Bladder (% contraction): 89.9 ± 1.8%
Rat bladder strips; 1 μmol/l
  Bladder (% contraction): 77.8 ± 2.1%
Rat bladder strips; 10 μmol/l
  Bladder (% contraction): 25.3 ± 3.2%
Rat bladder strips; rat bladder strips, read-out: EC50, relaxation of bladder strips
  EC50: 5000 nM
CYP-treated rats
  MED, significant increase of micturition interval: 3 mg/kg
BOO rats
  MED, significant reduction of non voiding contractions (NVC): 3 mg/kg
